Reference: patent EP0457908A1, “HYDROCHLORIDE 2,3,3a,4,5,6-HEXAHYDRO-8-CYCLOHEXYL-1H-PYRAZINO (3,2,1-j,k)CARBAZOL, METHOD OF OBTAINING IT AND A PHARMACEUTICAL PREPARATION OF ANTIDEPRESSIVE ACTION BASED ON IT” (priority 1989, dated 1991)
Where two headings read alike, the source gives them in different places.

Tests used:
monoaminoxidase = test: Monoaminoxidase activity in brain and liver homogenates after oral dosing; type: in vivo, male white rats
Description: The effect of the compound according to the present invention on the activity of monoaminoxidase was studied in special biochemical investigations.
The experiments were conducted in vivo on male white rats with a mass of 180-200 g. The compound in the doses of 5, 10, 25 and 50 mg/kg was administered orally. An equal volume of a […] of NaCl was administered to control animals. 1.5 hour after administration of the drug the animals were killed. […] The activity of monoaminoxidase was determined in 50% homogenates of the liver and brains of rate prepared on the basis of a 0.1 M phosphate buffer (pH = 7.4) containing 2% of a detergent - Trytol X-100. The substrates were used in concentrations of serotonin 10 µmol, tyramine 6 µmol per sample. The activity of monoaminoxidase was evaluated by liberation of ammonia during incubation of the samples for 50 minutes at the temperature of 37 °C in an oxygen atmosphere.
Protein in homogenates of the rat liver and brain was determined following the Peterson procedure (1977).

rabbits = test: Bioelectrical activity of the brain (electroencephalogram), rabbits; type: in vivo
Text: The study of the effect on the bioelectrical activity of the brain was effected in acute experiments using 8 consious cats immobilized with diplacin with a mass of 2.5-3.4 kg under conditions of a controlled breathing and 25 rabbits with a mass of 2.6-3.1 kg with chronically implanted electrodes. Recorded on an electroencephalograph was an electroencephalogram of the sensomotor, parietal and visual regions of the cerebral cortex in cats, plus that of the reticular formation of the midbrain, dorsal hippocamp and amygdala in rabbits.

[1] = tested on: normotensive rats of the Vistar line; test: Effect on arterial pressure and heart beat rate; type: in vivo
Description: The compound according to the present invention was also tested for its effect on the cardiovascular system.

[2] = Central and peripheral anticholinergic effect (oxotremorine, arecoline, galantamine); type: in vivo; conditions: 10 and 25 mg/kg orally and 1.0, 2.0 and 5.0 mg/kg intravenously
Description: The compound according to the present invention was also tested for its central and peripheral anticholinergic effect.

mice = test: Acute toxicity, mice; type: in vivo
Text: (§1) The acute and chronical toxicity of the compound according to the present invention was studied on mice, rats and rabbits.

rats = test: Acute toxicity, rats; type: in vivo
Text: as §1

mice, rats and rabbits = test: Chronical toxicity, daily administration for 6 months; type: in vivo; conditions: daily for 6 months
Text: as §1
Upon a daily administration of the compound according to the present invention for the period of 6 months no functional disturbances on the part of the inner organs of the animals were observed.

[3] = tested on: fruit fly, embryonic cells of rats, bone-marrow cells of mice, culture of human lymphocytes; test: Mutagenous effect tests; conditions: genetic mutations, dominant lethal mutations, chromosome aberrations
Description: The compound according to the present invention was also tested for a possible mutagenous effect by methods of evaluation of genetic mutations on fruit fly: dominant lethal mutations were studied on embryonic cells of rats, chromosome aberrations - in bone-marrow cells of mice and in a culture of human lymphocytes.

[4] = Allergenic, embryotoxic and teratogenic effect; conditions: in vivo
Solubility = type: physicochemical
patients = test: Clinical test on patients with depressions; type: in vivo, human beings
Description: The drug according to the present invention was tested in a clinic on patients (561 persons) aged 18 to 72 suffering from depressions of various genesis - endogenous, reactive, neurotic depressions caused by organic injuries of the brain, as well as depressive disturbances in chronical alcoholism and the like.
Clinical tests for different types of depressions were carried out in the following groups of patients:
The drug according to the present invention was administered orally in tablets twice a day - in the morning and in the afternoon. The dose depended on the severity of disease, efficiency and tolerance of the drug.
The treatment was usually started with administration of the drug in single doses of 0.025 g (25 mg) with a gradual increment of the daily dose for 1 to 3 weeks up to 200-300 to 350-400 mg.
The treatment duration ranged from 7 days to 12 weeks, more frequently 40-45 days.
In a number of cases (55 patients) the drug according to the present invention was administered in combination with other psychotropic agents selected mainly from the group of tranquilizers and neuroleptics (tazepam, seduxen, tizercin, and the like).
The efficiency as the drug according to the present invention was assessed with the use of assessment scales.

[5] = tested on: normotensive female rats of the Vistar line; test: Influence on the pressor effect of tyramine
Description: The experiments were conducted on conscious normotensive female rats of the Vistar line with a mass of 210-250 g placed under conditions of a free behaviour.

[6] = 5 mg/kg oral, 1.5 hour after administration
[7] = 10 mg/kg oral, 1.5 hour after administration
[8] = 25 mg/kg oral, 1.5 hour after administration (Table 5)
[9] = 25 mg/kg orally, time 1.5 hours (Table 6)
[10] = 25 mg/kg orally, time 6.0 hours
[11] = 25 mg/kg orally, time 48.0 hours
[12] = 50 mg/kg oral, 1.5 hour after administration
[13] = endogenous depressions (maniac-depressive psychosis, schizophrenia), asthenic or asthenoadynamic syndromes, light and medium severity

2,3,3a,4,5,6-hexahydro-8-cyclohexyl-1H-pyrazino-(3,2,1-j,k)-carbazole hydrochloride [Compound of the present invention]
Inhibition of deamination, % (M±m), Brain, Tyramine (monoaminoxidase; [6]): 17±4.2%
Inhibition of deamination, % (M±m), Liver, Tyramine (monoaminoxidase; [6]): 0%
Inhibition of deamination, % (M±m), Brain, Tyramine (monoaminoxidase; [7]): 16.6±3.4%
Inhibition of deamination, % (M±m), Liver, Tyramine (monoaminoxidase; [7]): 0%
Inhibition of deamination, % (M±m), Brain, Tyramine (monoaminoxidase; [8]): 40±3.0%
Inhibition of deamination, % (M±m), Liver, Tyramine (monoaminoxidase; [8]): 0%
time after which the activity of monoaminoxidase was fully restored (monoaminoxidase; 25 mg/kg orally): 48 h
Inhibition of deamination, % (M±m), Brain, Tyramine (monoaminoxidase; [9]): 40.0±3.0%
Inhibition of deamination, % (M±m), Liver, Tyramine (monoaminoxidase; [9]): 0%
Inhibition of deamination, % (M±m), Brain, Tyramine (monoaminoxidase; [10]): 36.0±9.3%
Inhibition of deamination, % (M±m), Liver, Tyramine (monoaminoxidase; [10]): 0%
Inhibition of deamination, % (M±m), Brain, Tyramine (monoaminoxidase; [11]): 2.5±1.1%
Inhibition of deamination, % (M±m), Liver, Tyramine (monoaminoxidase; [11]): 0%
Inhibition of deamination, % (M±m), Brain, Tyramine (monoaminoxidase; [12]): 43±6.6%
Inhibition of deamination, % (M±m), Liver, Tyramine (monoaminoxidase; [12]): 0%
character of the inhibiting effect on the activity of monoaminoxidase (monoaminoxidase; rat, in vivo): reversible selective inhibitor of monoaminoxidase of the A type
amplitude of sinusoidal regular waves (teta-activity) (rabbits; 2 mg/kg, rabbits, hippocampus): 150-200 µV
frequency of sinusoidal regular waves (teta-activity) (rabbits; 2 mg/kg, rabbits, hippocampus): 4-6 oscillations per second
frequency of regular low-amplitude rhythms (rabbits; 2 mg/kg, rabbits, visual, parietal regions and reticular formation of the midbrain): 5-7 oscillations per second
time after administration at which the variations in the electroencephalogram appeared (rabbits; 2 mg/kg, species not given): 75-90 minutes
time after administration at which the effect of activation was recorded (rabbits; 5 mg/kg, species not given): 45 to 60 min
heart beat rate ([1]; 10 mg/kg oral daily for 5 days): did not change the heart beat rate
effect on the arterial pressure and heart beat rate ([1]; 1-100 mg/kg orally, free behaviour): no essential effect
central and peripheral anticholinergic effect [2]: absence of the anticholinergic effect
LD₅₀ (mice; oral administration, mice): 1,300 mg/kg
LD₅₀ (mice; white mice): 1.3 g/kg
LD₅₀ (rats): 2.5 g/kg
LD₅₀ (rats; oral administration): 2,500 mg/kg
pathomorphological study (mice, rats and rabbits; 100 mg/kg): non-specific pathological changes in parenchymatous organs which were of a reversible character
pathomorphological study (mice, rats and rabbits; 10 and 50 mg/kg): no pathological changes
mutagenic properties [3]: revealed no mutagenic properties
allergenic, embryotoxic or teratogenic effect [4]: did not exhibit an allergenic effect, an embryotoxic or teratogenic effect
solubility in a 95% ethanol and chloroform (Solubility): very sparingly soluble
solubility in water and ether (Solubility): substantially insoluble
improvement observed, % of cases (patients; depressive disorders of the neurotic and reactive genesis): 80-100%
improvement observed, % of the events (patients; [13]): 37-92%
improvement observed, % of the events, on the average (patients; [13]): 50%
patients with a previous resistance to another antidepressant therapy in whom the drug was highly effective (patients; human, in vivo): 6 out of 21
toleration by patients (patients; human, in vivo): good toleration by patients
enhanced effect of tyramine ([5]; 5 mg/kg orally for 5 days): no enhanced effect of tyramine was observed
time after administration at which the enhanced effect of tyramine was noticed ([5]; 25 mg/kg orally): 6 to 18 h
enhanced the pressor effect of tyramine ([5]; 25 mg/kg orally, tyramine 20 mg/kg orally): 2 times
